From patent US10188648B2, “Solid state forms of selexipag” (TEVA PHARMACEUTICALS INTERNATIONAL GMBH, priority 2015, dated 2019)

Experiment: solubility in aqueous medium at pH=6.7
Format: physicochemical

Compound | solubility in aqueous medium in comparison with Form I of U.S. Pat. No. 8,791,122 (comparison with Form I) | solubility in aqueous medium
CC(C)N(CCCCOCC(=O)NS(C)(=O)=O)c1cnc(-c2ccccc2)c(-c2ccccc2)n1 [Form IV of Selexipag, 2-{4-[(5,6-diphenylpyrazin-2-yl)(isopropyl)amino]butoxy}-N-(methylsulfonyl)acetamide] | enhanced solubility | 
CC(C)N(CCCCOCC(=O)NS(C)(=O)=O)c1cnc(-c2ccccc2)c(-c2ccccc2)n1 [Selexipag Form I, 2-{4-[(5,6-diphenylpyrazin-2-yl)(isopropyl)amino]butoxy}-N-(methylsulfonyl)acetamide] |  | practically insoluble
